In patent publication US9301922B1, “Stable high strength pharmaceutical composition of levoleucovorin” (APROFOL AG, priority 2013, dated 2016):

Assay: Solubility in water (observation)
Format: physicochemical
Description: 4.0 g of levoleucovorin calcium (6.7 mmol) are suspended in 100 ml water. The slurry is heated up to about 40° C. to obtain a clear solution. 1.0 g of zinc acetate dihydrate (4.6 mmol) in 10 ml water is slowly added. A precipitate is formed immediately. After one day the precipitate is separated from the mother liquor.

## Nc1nc2c(c(=O)[nH]1)N(C=O)[C@@H](CNc1ccc(C(=O)N[C@@H](CCC(=O)[O-])C(=O)[O-])cc1)CN2.[Zn+2] [levoleucovorin zinc]
  Solubility in water: almost insoluble in water
